Data: US4719297A, “Acylphosphine compounds and their use as photoinitiators” (priority 1981, dated 1988)

Columns and labels:
[1] = Hardening activity of UP resin A under UV light, temperature/time curve (Table 2); conditions: 0.2% compound
Method: (§1) To measure the hardening activity, the temperature curve for the unsaturated polyester resin (UP resin) was recorded during exposure to UV light. […] To avoid heat losses during the exposure to UV light, the lid was embedded in rigid expanded polyurethane foam. The UV light source used comprised 5 fluorescent tubes (TLAK 40 W/05 from Philips) side by side, at a distance of 8.5 cm from the UP resin surface.
(§2) The hardening time HT25° C.-T.sbsb.max and the maximum hardening temperature Tmax achieved were obtained, as characteristic parameters for the hardening activity, from the recorded temperature/time curves. The hardening time is the interval in which the sample temperature increases from 25° C. to Tmax.
(§3) The Examples and Comparative Examples were carried out using the following unsaturated polyester resins:
Resin A was a 65% strength solution, in styrene, of an unsaturated polyester of maleic acid, o-phthalic acid, ethylene glycol and propylene 1,2-glycol in the molar ratio of 1:2:2.3:0.70, the solution being stabilized with 0.01% of hydroquinone.
(§4) The hardening activity of the novel compounds 1 to 16 (cf. Table 1) was compared with the properties of the following compounds: […]

[2] = Hardening activity of UP resin B under UV light, temperature/time curve (Table 2); conditions: 0.2% compound
Method: as §1, §2, §3
Resin B was a 67% strength solution, in styrene, of an unsaturated polyester of maleic acid, tetrahydrophthalic acid and diethylene glycol in the molar ratio of 1:0.5:1.5, the solution being stabilized with 0.01% of hydroquinone.
as §4

[3] = Shelf life of UP resin C containing a photoinitiator, stored at 60° C. (Table 3); type: physicochemical; conditions: 0.2% initiator, dark
Method: (§5) To test the shelf life, 6.6 ml of each of the UP resins A, B and C (cf. Example 5) with an initiator content of 0.2% were introduced into brown sample bottles, and the closed bottles were stored at 60° C. At intervals of about 12 hours, the bottles were turned to determine whether gel particles had formed. As a measure of the shelf life, Table 3 gives the maximum storage time at which gel particles were still not observed.
(§6) In addition to the comparative compounds I, II and III, compound V below was also tested: V 2,4,6-trimethylbenzoyldiphenylphosphine oxide as described in U.S. Pat. No. 4,265,723.
(§7) The numbering scheme of the compounds in Table 3 is based on that of Table 1.

[4] = Shelf life of UP resin B containing a photoinitiator, stored at 60° C. (Table 3); type: physicochemical; conditions: 0.2% initiator, dark
Method: as §5, §6, §7

[5] = Hardening activity of UP resin C under UV light, temperature/time curve (Table 2); conditions: 0.2% compound
Method: as §1, §2, §3
Resin C was a 66% strength solution, in styrene, of an unsaturated polyester of maleic acid, o-phthalic acid and propylene 1,2-glycol in the molar ratio of 1:0.5:1.5, the solution being stabilized with 0.01% of hydroquinone.
as §4

[6] = Shelf life of resins containing the compounds, overall comparison; type: physicochemical; conditions: Table 3, in words
Method: as §5, §6

[7] = Shelf life of UP resin A containing a photoinitiator, stored at 60° C. (Table 3); type: physicochemical; conditions: 0.2% initiator, dark
Method: as §5, §6, §7

[8] = Minimum exposure time for faultless reproduction of the 3% tonality on photopolymerizable printing plate (Table 7); conditions: 2 parts photoinitiator; UV about 3,300 μW/cm^2
Method: 60 parts by weight of a 1:1:1 copolyamide consisting of PA-6, PA-6.6 and PA-6.13, 30 parts by weight of ethylene glycol bis-(N-methylolacrylamide) ether, 10 parts by weight of benzenesulfonic acid N-(n-butyl)-amide, 150 parts by weight of methanol, 20 parts by weight of water, 0.02 part by weight of a chromium complex dye (CI No. 12,195), 0.3 part by weight of potassium N-nitrosocyclohexylhydroxylamine and 2 parts by weight of the photoinitiator given in Table 7 were dissolved at about 70° C. The photopolymerizable material was brought to a solids content of about 65% by distilling off part of the solvent and was then cast, at 60° C., on to a strip of steel sheet provided with an adhesive, and drying was effected in a drying oven for about 2 hours at 80° C. The resulting photopolymerizable printing plate contained a 0.5 mm thick layer with a solids content of about 95%.
Using a test negative which had, inter alia, 54 screen lines, per centimeter, of 3% tonality, the plate was exposed to a UV light intensity of about 3,300 μW/cm^2 on a flat-plate exposure unit equipped with superactinic fluorescent tubes. The unexposed parts of the plate which were protected from the UV light by the opaque image elements of the negative were then washed out in a spray washer for 5 minutes at 30° C. and under a spray pressure of 5 bar, using an ethanol/water mixture containing 80% of ethanol. The plate was thereafter dried for 6 minutes at 110° C. The minimum exposure time required for faultless reproduction of the 3% tonality was measured, and the results for various photoinitiators are summarized in Table 7.

[9] = Photopolymerization of monomer emulsion, properties of resulting polymer dispersions (Table 5)
Method: A monomer emulsion was prepared from 50 parts of methyl acrylate, 50 parts of ethyl acrylate, 1.3 parts of a 40% strength C15 -paraffin sulfonate, 1.3 parts of an adduct of isooctylphenol with 25 units of ethylene oxide (20% strength) and 210 parts of water in a conventional mixing unit.
This emulsion was introduced into a 1 l glass flask provided with an internal thermometer and a stirrer, and was freed from oxygen by twice evacuating the flask and gassing the emulsion with nitrogen. X parts of the photoinitiator in 6.7 parts of water were added, and the reaction vessel was then exposed for 60 minutes to light from a high pressure mercury vapor lamp of Type HQL/R 400 W from Osram, located 30 cm above the vessel. The beginning of polymerization was evident from an increase in the temperature. The amounts of photoinitiator employed and the properties of the resulting polymer dispersions are summerized in Table 5, photoinitiator 4 (cf. Table 1) being compared with photoinitiator VI (described in U.S. Pat. No. 4.257,859).

[10] = 1.7 parts X employed, 60 min exposure

Row | SMILES | hardening time HT 25°-Tmax [1] | maximum hardening temperature Tmax [1] [°C] | hardening time HT 25°-Tmax [2] | maximum hardening temperature Tmax [2] [°C] | hardening time HT 25°-Tmax [5] | maximum hardening temperature Tmax [5] [°C] | shelf life of resins compared with compounds II, III and V [6] | Shelf life [7] [h] | further results
1 | Cc1cc(C)c(C(=O)P(=O)(O)c2ccccc2)c(C)c1 [Compound 5] | 5/38 | 118 |  |  |  |  |  |  | 
2 | Cc1cc(C)c(C(=O)P(=O)(O)c2ccccc2)c(C)c1 [Compound 6] | 5/53 | 115 |  |  |  |  |  |  | 
3 | Cc1cc(C)c(C(=O)P(=O)(O)c2ccccc2)c(C)c1 [Compound 8, Calcium bis-(2,4,6-trimethylbenzoylphenylphosphinate)] | 5/53 | 114 | 6/00 | 130 |  |  |  |  | 
4 | Cc1cc(C)c(C(=O)P(=O)(O)c2ccccc2)c(C)c1 [Compound 9] | 5/53 | 110 | 4/45 | 125 | 5/45 | 129 | substantially superior | 180 | Shelf life [3]: 180 h; Shelf life [4]: 140 h; shelf life of resins compared with resins containing I [6]: not significantly different
5 | Cc1cc(C)c(C(=O)P(=O)(O)c2ccccc2)c(C)c1 [Compound 11] | 5/23 | 118 | 4/30 | 124 | 5/15 | 120 | substantially superior | 180 | Shelf life [3]: 204 h; Shelf life [4]: 155 h; shelf life of resins compared with resins containing I [6]: not significantly different
6 | Cc1cc(C)c(C(=O)P(=O)(O)c2ccccc2)c(C)c1 [Compound 13] | 6/08 | 115 | 5/30 | 126 | 5/23 | 121 |  |  | 
7 | Cc1cc(C)c(C(=O)P(=O)(O)c2ccccc2)c(C)c1 [Compound 14] | 5/30 | 122 | 4/53 | 118 | 5/38 | 123 | substantially superior | 180 | Shelf life [3]: 204 h; Shelf life [4]: 155 h; Minimum exposure time required for reproducing the 3% tonality [8]: 110 s; shelf life of resins compared with resins containing I [6]: not significantly different
8 | Cc1cc(C)c(C(=O)P(=O)(O)c2ccccc2)c(C)c1 [Compound 15] | 7/15 | 113 | 8/00 | 119 | 7/30 | 109 |  |  | 
9 | Cc1cc(C)c(C(=O)P(=O)(O)c2ccccc2)c(C)c1 [Compound 16] | 5/15 | 115 |  |  |  |  |  |  | 
10 | Cc1cc(C)c(C(=O)P(=O)(O)c2ccccc2)c(C)c1 [Compound 17] | 5/38 | 120 |  |  |  |  | substantially superior | 270 | 
11 | Cc1cc(C)c(C(=O)P(=O)(O)c2ccccc2)c(C)c1 [Compound 18] |  |  |  |  |  |  | substantially superior | 270 | 
12 | Cc1cc(C)c(C(=O)P(=O)(OC(C)C)c2ccccc2)c(C)c1 (stereo not drawn) [II, isopropyl 2,4,6-trimethylbenzoylphenylphosphinate, reference compound] | 6/45 | 107 | 5/15 | 128 | 6/08 | 120 |  | 140 | Shelf life [3]: 120 h; Shelf life [4]: 155 h
13 | COC(OC)(C(=O)c1ccccc1)c1ccccc1 [III, benzil dimethyl ketal, reference compound] | 8/00 | 114 | 9/45 | 119 | 8/30 | 122 |  |  | Minimum exposure time required for reproducing the 3% tonality [8]: 165 s
14 | C[N+]1(CC(O)(C(=O)c2ccccc2)c2ccccc2)CCCC1 (stereo not drawn) [VI] |  |  |  |  |  |  |  |  | polymerization outcome ([9]; 0.04 parts X employed): no polymerization; Fikentscher K value [9, 10]: 146.1; Residual monomers, ethyl acrylate [9, 10]: 0.012%; Residual monomers, methyl acrylate [9, 10]: 0.036%; Solids content [9, 10]: 30.8%; initiation of photopolymerization at very low starting concentrations ([9]; very low starting concentrations, in words): no longer initiates polymerization
